Measurements: PMC8522752 (Antimicrobial Agents and Chemotherapy, 2021)
Where two headings read alike, the source gives them in different places.

Key:
[1] = test system: Yellow Fever virus YFV 17D; assay: microbe, parasite or virus in culture; type: cell-based; conditions: Huh-7, read-out: EC90 (reduce virus yield by 1 log10) (converted)
Usutu virus TC-508 [2] = assay: microbe, parasite or virus in culture; type: cell-based; conditions: Usutu TC-508, Huh-7, VYR assay, read-out: EC90 (reduce virus yield by 1 log10) (converted)
Dengue-3 H87 = assay: Neutral red CPE inhibition assay, Dengue-3 H87 in Huh-7; type: cell-based; conditions: Dengue virus; Dengue-3 H87, Huh-7, neutral red assay; read-out: EC50 (inhibition of virus-induced CPE)
[3] = test system: Japanese encephalitis virus SA-14; assay: Neutral red CPE inhibition assay, Japanese encephalitis SA-14 in Huh-7; type: cell-based; conditions: Japanese encephalitis SA-14, Huh-7, neutral red assay, read-out: EC50 (inhibition of virus-induced CPE)
Powassan virus Spooner [4] = assay: microbe, parasite or virus in culture; type: cell-based; conditions: BHK-21, read-out: EC50 (inhibition of virus-induced CPE)
HCV = assay: Antiviral specificity panel, HCV in Huh-7; type: cell-based, hepatitis C virus
[5] = mice, 1,000 mg/kg loading then 500 mg/kg BID for 3 days, oral
Influenza A and B = assay: Antiviral specificity panel, Influenza A and B in MDCK; type: cell-based; conditions: Influenza A virus, Influenza A and B (RNA), read-out: EC50 (inhibit viral replication 50%)
DENV2 (clinical isolate) [6] = assay: DENV2 clinical isolate CPE inhibition in BHK-21 cells (MTT); type: cell-based, dengue virus
Powassan virus LB [7] = assay: microbe, parasite or virus in culture; type: cell-based; conditions: BHK-21, read-out: EC90 (reduce virus yield by 1 log10) (converted)
Dengue-2 New Guinea C [8] = assay: Neutral red CPE inhibition assay, Dengue-2 New Guinea C in Huh-7; type: cell-based; conditions: Dengue virus, Huh-7, neutral red assay, read-out: EC50 (inhibition of virus-induced CPE)
BHK-21 cells = conditions: hamster
[9] = Cytotoxicity in uninfected BHK-21 cells (MTT, DENV2 study); type: cell-based; conditions: hamster, BHK-21 without virus, Dengue-2 clinical isolate study, bound = highest concentration tested
Dengue-2 New Guinea C [10] = assay: microbe, parasite or virus in culture; type: cell-based; conditions: Huh-7, VYR assay, read-out: EC90 (reduce virus yield by 1 log10) (converted)
[11] = test system: Yellow Fever virus YFV 17D; assay: microbe, parasite or virus in culture; type: cell-based; conditions: Huh-7, read-out: EC50 (inhibition of virus-induced CPE)
[12] = test system: Eastern equine encephalitis virus; assay: microbe, parasite or virus in culture; type: cell-based; conditions: Huh-7, read-out: EC50 (inhibit viral replication 50%)
in vitro [13] = conditions: human, hamster
[14] = Plasma pharmacokinetics in cynomolgus monkeys after oral AT-752; conditions: monkeys, oral AT-752 300 mg/kg
Adenovirus = assay: Antiviral specificity panel, Adenovirus in Vero; type: cell-based; conditions: unidentified adenovirus, Adenovirus (DNA), read-out: EC50 (inhibit viral replication 50%)
Herpes simplex-1 = assay: Antiviral specificity panel, Herpes simplex-1 in Vero; type: cell-based; conditions: Herpes simplex-1 (DNA), read-out: EC50 (inhibit viral replication 50%)
in vitro [15] = conditions: African green monkey
in vivo [16] = conditions: male, cynomolgus, cynomolgus monkey, po, 300 mg/kg
Rift Valley fever virus = assay: microbe, parasite or virus in culture; type: cell-based; conditions: Huh-7, read-out: EC50 (inhibit viral replication 50%)
flaviviruses [17] = assay: microbe, parasite or virus in culture
flaviviruses [18] = test system: flaviviruses
Usutu virus TC-508 [19] = assay: Neutral red CPE inhibition assay, Usutu TC-508 in Huh-7; type: cell-based; conditions: Huh-7, read-out: EC50 (inhibition of virus-induced CPE)
[20] = test system: West Nile virus Kern 515, WNo2; assay: Neutral red CPE inhibition assay, West Nile virus in Huh-7; type: cell-based; conditions: West Nile Kern 515, WNo2, Huh-7, neutral red assay, read-out: EC50 (inhibition of virus-induced CPE)
[21] = test system: Respiratory syncytial virus; assay: Antiviral specificity panel, respiratory syncytial virus in HEp2; type: cell-based; conditions: human respiratory syncytial virus, HEp-2, Respiratory syncytial virus (RNA), read-out: EC50 (inhibit viral replication 50%)
in vitro [22] = conditions: dog
[23] = Plasma pharmacokinetics in Sprague Dawley rats after oral AT-752; conditions: rat, oral AT-752 300 mg/kg, earliest time point measured
Powassan virus LB [24] = assay: microbe, parasite or virus in culture; type: cell-based; conditions: BHK-21, read-out: EC50 (inhibition of virus-induced CPE)
in vivo [25] = conditions: male, CD-1, mouse, po, 420 mg/kg
[26] = Cardiomyocyte assay (CellTiter Glo); type: cell-based; conditions: human iPS cardiomyocytes
DENV2 (clinical isolate) [27] = assay: DENV2 clinical isolate CPE inhibition in human PBMCs (MTT); type: cell-based, dengue virus
Chikungunya virus = assay: Antiviral specificity panel, Chikungunya in Huh-7; type: cell-based; conditions: Chikungunya (RNA), read-out: EC50 (inhibit viral replication 50%)
Zika virus MR766 = assay: Neutral red CPE inhibition assay, Zika MR766 in Huh-7; type: cell-based; conditions: Huh-7, read-out: EC50 (inhibition of virus-induced CPE)
HIV-1 = assay: Antiviral specificity panel, HIV-1 in CEM-SS; type: cell-based; conditions: Human immunodeficiency virus 1, HIV-1 (RNA), read-out: EC50 (inhibit viral replication 50%)
[28] = test system: West Nile virus Kern 515, WNo2; assay: microbe, parasite or virus in culture; type: cell-based; conditions: West Nile Kern 515, WNo2, Huh-7, VYR assay, read-out: EC90 (reduce virus yield by 1 log10) (converted)
Rhinovirus = assay: Antiviral specificity panel, Rhinovirus in H1-HeLa; type: cell-based; conditions: Enterovirus, Rhinovirus (RNA), read-out: EC50 (inhibit viral replication 50%)
Powassan virus Spooner [29] = assay: microbe, parasite or virus in culture; type: cell-based; conditions: BHK-21, read-out: EC90 (reduce virus yield by 1 log10) (converted)

With `CNc1nc(N)nc2c1ncn2[C@@H]1O[C@H](CO[P@](=O)(N[C@@H](C)C(=O)OC(C)C)Oc2ccccc2)[C@@H](O)[C@@]1(C)F` [AT-281] the EC90 [1] was 260 nM, the EC90 (Usutu virus TC-508 [2]) was 720 nM and the EC50 (Dengue-3 H87) was 770 nM. The EC50 [3] was 210 nM, the EC50 (Powassan virus Spooner [4]) was 290 nM and the “selectivity toward HCV” value (HCV) was > 2,000. For the same molecule, the EC50 (HCV; Hepatitis C virus, HCV (RNA), read-out: EC50 (inhibit viral replication 50%)) was 50 nM, the “tolerability (adverse clinical signs)” value [5] was “well tolerated” and the EC50 (Influenza A and B) was greater than 100 µM. The EC50 (DENV2 (clinical isolate) [6]; Dengue virus, DENV2, BHK-21, read-out: EC50 (inhibition of virus-induced CPE), Dengue-2 clinical isolate, BHK-21) was 630 nM, the EC50 (DENV2 (clinical isolate) [6]; read-out: EC50 (inhibition of virus-induced CPE), Dengue-2 clinical isolate, BHK-21) was 1100 nM and the EC90 (Powassan virus LB [7]) was 2600 nM. The EC50 (Dengue-2 New Guinea C [8]) was 480 nM, the CC50 (BHK-21 cells) was greater than 170 µM and the CC50 at 3 days [9] was greater than 170 µM. For the same molecule, the EC90 (Dengue-2 New Guinea C [10]) was 640 nM, the EC50 [11] was 310 nM and the EC50 [12] was 10.2 µM. The CC50 (in vitro [13]) was 85 to 170 µM, the “time present in plasma” value [14] was “more than 4 h” and the EC50 (Adenovirus) was greater than 100 µM. The EC50 (Herpes simplex-1) was greater than 100 µM, the CC50 (in vitro [15]) was greater than 100 µM and the AUC(0-t) (in vivo [16]) was 9.5 ± 3.7 µM·h. For the same molecule, the Cmax (in vivo [16]) was 3.7 ± 1.5 µM, the Tmax (in vivo [16]) was 1 h and the EC50 (Rift Valley fever virus) was greater than 100 µM. For the same molecule, the EC50 (flaviviruses [17]; Dengue virus, DENV2 / DENV3, read-out: EC50 values, all other flaviviruses tested) was 190 to 1410 nM, the EC50 (flaviviruses [17]; Orthoflavivirus, in Homo sapiens, 144 h, read-out: EC50 of the virus-induced cytopathic effect (CPE), range over Table 1) was 210 to 1410 nM and the “SI (CC50/EC50)” value (flaviviruses [18]) was greater than 210. For the same molecule, the cytotoxicity (flaviviruses [18]) was “Little to no cytotoxicity”, the EC50 (Usutu virus TC-508 [19]) was 190 nM and the EC50 [20] was 1410 nM. For the same molecule, the EC50 [21] was greater than 100 µM, the CC50 (in vitro [22]) was greater than 100 µM and the “plasma concentration at 1 h” value [23] was “below the limit of quantitation”. For the same molecule, the EC50 (Powassan virus LB [24]) was 640 nM, the AUC(0-t) (in vivo [25]) was 4.2 ± 0.5 µM·h and the Cmax (in vivo [25]) was 2600 ± 300 nM. It also gave a Tmax (in vivo [25]) of 48 ± 18 min, a CC50 at 3 days [26] greater than 100 µM and an EC50 (DENV2 (clinical isolate) [27]; Dengue virus, DENV2, PBMC, read-out: EC50 (inhibition of virus-induced CPE), Dengue-2 clinical isolate, human PBMC) of 600 nM. It also gave an EC50 (DENV2 (clinical isolate) [27]; read-out: EC50 (inhibition of virus-induced CPE), Dengue-2 clinical isolate, human PBMC) of 800 nM, an EC50 (Chikungunya virus) of 54.2 µM and an EC50 (Zika virus MR766) of 640 nM. It also gave an EC50 (HIV-1) greater than 100 µM, an EC90 [28] of 430 nM and an EC50 (Rhinovirus) greater than 100 µM. For the same molecule, the EC90 (Powassan virus Spooner [29]) was 740 nM.
